According to patent publication US10660877B2 (BRISTOL-MYERS SQUIBB COMPANY, priority 2016, dated 2020):
Where two headings read alike, the source gives them in different places.

Assays:
human TLR8 = human TLR8 (Homo sapiens (Human), UniProt Q9NR97); assay: TLR8 inhibition reporter assay (HEK-Blue cells, SEAP reporter, R848 stimulation);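 note: compounds tested from 0.05 nM to 50 µM, 22 h at 37 °C, SEAP measured with HEK-Blue Detection, inhibition relative to agonist plus DMSO versus a known inhibitor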
Sequence of human TLR8 (Q9NR97 27-1041): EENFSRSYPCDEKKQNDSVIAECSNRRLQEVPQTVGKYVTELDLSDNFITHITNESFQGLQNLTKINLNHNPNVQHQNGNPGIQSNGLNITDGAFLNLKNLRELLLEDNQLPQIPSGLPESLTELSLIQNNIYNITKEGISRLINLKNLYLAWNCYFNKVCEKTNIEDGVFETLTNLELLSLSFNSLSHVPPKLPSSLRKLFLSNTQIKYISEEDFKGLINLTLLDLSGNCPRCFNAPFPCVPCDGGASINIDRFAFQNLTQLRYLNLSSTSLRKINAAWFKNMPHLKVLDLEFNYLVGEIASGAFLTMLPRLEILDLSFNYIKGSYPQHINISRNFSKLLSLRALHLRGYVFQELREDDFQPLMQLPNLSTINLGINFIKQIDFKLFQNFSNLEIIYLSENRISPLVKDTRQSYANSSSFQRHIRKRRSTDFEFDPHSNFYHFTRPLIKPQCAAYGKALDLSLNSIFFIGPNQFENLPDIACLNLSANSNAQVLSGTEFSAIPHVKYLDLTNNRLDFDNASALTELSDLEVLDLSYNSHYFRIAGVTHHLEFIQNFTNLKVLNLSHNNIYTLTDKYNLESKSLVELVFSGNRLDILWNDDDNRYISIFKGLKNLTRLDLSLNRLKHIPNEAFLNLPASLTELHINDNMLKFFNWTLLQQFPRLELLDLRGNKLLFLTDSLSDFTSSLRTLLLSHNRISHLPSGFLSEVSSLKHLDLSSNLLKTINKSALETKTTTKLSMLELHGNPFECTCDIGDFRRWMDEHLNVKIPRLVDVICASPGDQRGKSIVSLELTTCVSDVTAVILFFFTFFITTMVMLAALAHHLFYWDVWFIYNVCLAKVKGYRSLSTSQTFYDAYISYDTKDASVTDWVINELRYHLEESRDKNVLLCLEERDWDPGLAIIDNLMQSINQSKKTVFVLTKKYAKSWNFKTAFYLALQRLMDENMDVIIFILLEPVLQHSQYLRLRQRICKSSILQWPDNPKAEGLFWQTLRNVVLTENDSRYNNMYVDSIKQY

human TLR7 = human TLR7 (Homo sapiens (Human), UniProt Q9NYK1); assay: TLR7 inhibition reporter assay (HEK-Blue cells, SEAP reporter, gardiquimod stimulation); assay type: cell-based
Sequence of human TLR7 (Q9NYK1 27-1049): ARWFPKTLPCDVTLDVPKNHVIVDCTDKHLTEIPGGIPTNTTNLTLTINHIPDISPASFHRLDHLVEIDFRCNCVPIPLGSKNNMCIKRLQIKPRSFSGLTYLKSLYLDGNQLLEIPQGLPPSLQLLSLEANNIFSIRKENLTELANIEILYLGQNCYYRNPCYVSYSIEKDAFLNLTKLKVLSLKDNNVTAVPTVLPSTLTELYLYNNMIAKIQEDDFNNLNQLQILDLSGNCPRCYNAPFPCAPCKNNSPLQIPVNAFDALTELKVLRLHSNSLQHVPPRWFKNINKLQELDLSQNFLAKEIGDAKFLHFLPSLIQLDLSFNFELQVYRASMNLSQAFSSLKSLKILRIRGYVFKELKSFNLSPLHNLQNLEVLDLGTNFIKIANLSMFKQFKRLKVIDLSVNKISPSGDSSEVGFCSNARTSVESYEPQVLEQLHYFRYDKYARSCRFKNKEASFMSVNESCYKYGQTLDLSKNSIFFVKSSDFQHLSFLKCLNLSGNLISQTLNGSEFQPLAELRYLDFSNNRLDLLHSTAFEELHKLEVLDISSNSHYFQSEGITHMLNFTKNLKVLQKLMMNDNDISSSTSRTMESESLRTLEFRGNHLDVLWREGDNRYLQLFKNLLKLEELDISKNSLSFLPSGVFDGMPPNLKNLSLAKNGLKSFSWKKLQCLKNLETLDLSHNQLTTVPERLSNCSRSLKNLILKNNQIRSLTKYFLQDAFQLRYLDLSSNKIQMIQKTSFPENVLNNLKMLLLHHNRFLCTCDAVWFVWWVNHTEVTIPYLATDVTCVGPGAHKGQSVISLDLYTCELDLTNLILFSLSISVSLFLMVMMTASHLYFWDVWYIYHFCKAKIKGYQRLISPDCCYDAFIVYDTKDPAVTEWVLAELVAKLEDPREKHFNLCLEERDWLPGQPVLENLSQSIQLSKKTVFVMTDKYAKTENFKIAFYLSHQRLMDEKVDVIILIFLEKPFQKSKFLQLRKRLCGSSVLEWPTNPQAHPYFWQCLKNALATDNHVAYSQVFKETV

human TLR9 = human TLR9 (Homo sapiens (Human), UniProt Q9NR96); assay: TLR9 inhibition reporter assay (HEK-Blue cells, SEAP reporter, ODN2006 stimulation);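 note: compounds tested over 0.05 nM to 50 µM, 22 h incubation, inhibition taken as SEAP signal drop from agonist plus DMSO wells toward a known inhibitor control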
Sequence of human TLR9 (Q9NR96 26-1032): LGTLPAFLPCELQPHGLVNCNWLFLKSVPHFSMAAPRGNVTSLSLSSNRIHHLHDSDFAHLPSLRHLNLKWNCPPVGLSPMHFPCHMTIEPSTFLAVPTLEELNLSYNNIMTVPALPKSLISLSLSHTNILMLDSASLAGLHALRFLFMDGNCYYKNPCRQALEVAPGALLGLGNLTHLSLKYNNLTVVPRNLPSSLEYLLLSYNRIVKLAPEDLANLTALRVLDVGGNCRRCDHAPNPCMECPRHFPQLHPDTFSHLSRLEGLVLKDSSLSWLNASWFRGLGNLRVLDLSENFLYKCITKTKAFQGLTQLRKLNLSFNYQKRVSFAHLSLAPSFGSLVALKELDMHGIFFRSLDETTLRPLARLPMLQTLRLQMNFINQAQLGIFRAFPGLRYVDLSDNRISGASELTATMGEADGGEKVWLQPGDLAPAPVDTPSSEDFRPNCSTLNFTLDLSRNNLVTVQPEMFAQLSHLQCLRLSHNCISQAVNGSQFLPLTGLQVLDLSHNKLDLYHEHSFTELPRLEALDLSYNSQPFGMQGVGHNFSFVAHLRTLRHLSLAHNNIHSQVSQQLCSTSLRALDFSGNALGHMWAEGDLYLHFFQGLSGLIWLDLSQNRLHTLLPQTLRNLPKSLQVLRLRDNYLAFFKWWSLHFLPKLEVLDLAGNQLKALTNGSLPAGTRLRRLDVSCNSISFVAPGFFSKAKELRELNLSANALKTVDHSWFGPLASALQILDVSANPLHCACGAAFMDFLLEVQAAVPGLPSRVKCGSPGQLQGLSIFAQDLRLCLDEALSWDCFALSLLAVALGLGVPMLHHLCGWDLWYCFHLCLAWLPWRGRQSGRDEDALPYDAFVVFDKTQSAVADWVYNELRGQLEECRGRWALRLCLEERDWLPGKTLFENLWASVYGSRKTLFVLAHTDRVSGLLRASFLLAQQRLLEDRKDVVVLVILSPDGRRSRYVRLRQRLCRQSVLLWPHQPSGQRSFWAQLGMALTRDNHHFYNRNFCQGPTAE

[1] = read-out: TLR8 IC50, HEK-Blue cells overexpressing human TLR8, R848 15.9 μM
[2] = HEK-Blue cells overexpressing human TLR7, gardiquimod 7.5 μM
[3] = read-out: TLR9 IC50, HEK-Blue cells overexpressing human TLR9, ODN2006 5 nM

SMILES	IC50 (human TLR8; [1])	IC50 (human TLR7; [2])	IC50 (human TLR9; [3])	IC50 (human TLR8; TLR8 IC50, HEK-Blue cells overexpressing human TLR8, R848 15.9 μM)	IC50 (human TLR9; TLR9 IC50, HEK-Blue cells overexpressing human TLR9, ODN2006 5 nM)	IC50 (human TLR8; read-out: TLR8 IC50, HEK-Blue cells, R848 15.9 μM)	IC50 (human TLR7; HEK-Blue cells, gardiquimod 7.5 μM)	IC50 (human TLR9; read-out: TLR9 IC50, HEK-Blue cells, ODN2006 5 nM)
Cc1cc(-c2[nH]c3ccc(C4CCN(C(=O)CN5CCC(F)(F)CC5)CC4)cc3c2C(C)C)cc(C)n1 [Example 362, 2-(4,4-difluoropiperidin-1-yl)-1-(4-(2-(2,6-dimethylpyridin-4-yl)-3-isopropyl-1H-indol-5-yl)piperidin-1-yl)ethan-1-one]	55.1 nM	33.6 nM	16100 nM	–	–	–	–	–
Cc1cc(-c2[nH]c3ccc(C4CCNCC4)cc3c2C2CC2)ccn1 [Example 88, 3-cyclopropyl-2-(2-methylpyridin-4-yl)-5-(piperidin-4-yl)-1H-indole]	7 nM	11.9 nM	71 nM	–	–	–	–	–
Cc1cc(-c2[nH]c3ccc(C4CCN(C(=O)CN(CCO)Cc5ccc(F)cc5)CC4)cc3c2C(C)C)cc(C)n1 [Example 407, 1-(4-(2-(2,6-dimethylpyridin-4-yl)-3-isopropyl-1H-indol-5-yl)piperidin-1-yl)-2-((4-fluorobenzyl)(2-hydroxyethyl)amino)ethan-1-one]	71 nM	7 nM	495 nM	–	–	–	–	–
CCC(=O)N1CCC(c2ccc3[nH]c(-c4cc(C)nc(C)c4)c(C(C)C)c3c2)CC1 [Example 206, 1-(4-(2-(2,6-dimethylpyridin-4-yl)-3-isopropyl-1H-indol-5-yl)piperidin-1-yl)propan-1-one]	100 nM	5.4 nM	41900 nM	–	–	–	–	–
Cc1cc(-c2[nH]c3ccc(C4CCN(C(=O)CN(C)CCC#N)CC4)cc3c2C(C)C)c(F)cn1 [Example 679, 3-((2-(4-(2-(5-fluoro-2-methylpyridin-4-yl)-3-isopropyl-1H-indol-5-yl)piperidin-1-yl)-2-oxoethyl)(methyl)amino)propanenitrile]	19.8 nM	12.7 nM	4380 nM	–	–	–	–	–
COc1cc(-c2[nH]c3ccc(C4CCN(C5CCN(C(C)C)CC5)CC4)cc3c2C(C)C)ccn1 [Example 797, 3-isopropyl-5-(1′-isopropyl-[1,4′-bipiperidin]-4-yl)-2-(2-methoxypyridin-4-yl)-1H-indole]	23.1 nM	141 nM	596 nM	–	–	–	–	–
Cc1cc(-c2[nH]c3ccc(C4CCN(C5CC(C)OC(C)C5)CC4)cc3c2C(C)C)cc(C)n1 (stereo not drawn) [Example 455, 2-(2,6-dimethylpyridin-4-yl)-5-(1-(2,6-dimethyltetrahydro-2H-pyran-4-yl)piperidin-4-yl)-3-isopropyl-1H-indole]	7.6 nM	10.9 nM	390 nM	–	–	–	–	–
CCc1c(-c2ccnc(C)c2)[nH]c2ccc(C3CCN(C(=O)NC4CCN(C(=O)C(F)(F)F)CC4)CC3)cc12 [Example 846, 4-(3-ethyl-2-(2-methylpyridin-4-yl)-1H-indol-5-yl)-N-(1-(2,2,2-trifluoroacetyl)piperidin-4-yl)piperidine-1-carboxamide]	–	–	–	–	–	1540 nM	1590 nM	> 50000 nM
Cc1cc(-c2[nH]c3ccc(C4CCN(CC(=O)NCC(C)C)CC4)cc3c2C(C)C)cc(C)n1 [Example 221, 2-(4-(2-(2,6-dimethylpyridin-4-yl)-3-isopropyl-1H-indol-5-yl)piperidin-1-yl)-N-isobutylacetamide]	17.2 nM	6.8 nM	2010 nM	–	–	–	–	–
Cc1cc(-c2[nH]c3ccc(C4CCN(CC(O)C(F)(F)F)CC4)cc3c2C(C)C)cc(C)n1 (stereo not drawn) [Example 316, 3-(4-(2-(2,6-dimethylpyridin-4-yl)-3-isopropyl-1H-indol-5-yl)piperidin-1-yl)-1,1,1-trifluoropropan-2-ol]	2.3 nM	11.9 nM	780 nM	–	–	–	–	–
Cc1cc(-c2[nH]c3ccc(C4CCN(C(=O)CN(C)C(C)(C)C)CC4)cc3c2C(C)C)cc(C)n1 [Example 359, 2-(tert-butyl (methyl)amino)-1-(4-(2-(2,6-dimethylpyridin-4-yl)-3-isopropyl-1H-indol-5-yl)piperidin-1-yl)ethan-1-one]	11.7 nM	7.1 nM	826 nM	–	–	–	–	–
Cc1cc(-c2[nH]c3ccc(C4CCN(C)CC4)cc3c2C(C)C)c(C)cn1 [Example 636, 2-(2,5-dimethylpyridin-4-yl)-3-isopropyl-5-(1-methylpiperidin-4-yl)-1H-indole]	1 nM	9.8 nM	1370 nM	–	–	–	–	–
Cc1nccc(-c2[nH]c3ccc(C4CCN(C(=O)C5CC(=O)N(C)C5)CC4)cc3c2C(C)C)c1F (stereo not drawn) [Example 582, 4-(4-(2-(3-fluoro-2-methylpyridin-4-yl)-3-isopropyl-1H-indol-5-yl)piperidine-1-carbonyl)-1-methylpyrrolidin-2-one]	48 nM	30.1 nM	> 50000 nM	–	–	–	–	–

More lines, now with the values ahead:

IC50 (human TLR8; [1])	IC50 (human TLR7; [2])	IC50 (human TLR9; [3])	IC50 (human TLR8; TLR8 IC50, HEK-Blue cells overexpressing human TLR8, R848 15.9 μM)	IC50 (human TLR9; TLR9 IC50, HEK-Blue cells overexpressing human TLR9, ODN2006 5 nM)	IC50 (human TLR8; read-out: TLR8 IC50, HEK-Blue cells, R848 15.9 μM)	IC50 (human TLR7; HEK-Blue cells, gardiquimod 7.5 μM)	IC50 (human TLR9; read-out: TLR9 IC50, HEK-Blue cells, ODN2006 5 nM)	SMILES
79.8 nM	0.5 nM	> 50000 nM	–	–	–	–	–	CC(=O)NCC(=O)N1CCC(c2ccc3[nH]c(-c4cc(C)nc(C)c4)c(C(C)C)c3c2)CC1 [Example 166, N-(2-(4-(2-(2,6-dimethylpyridin-4-yl)-3-isopropyl-1H-indol-5-yl)piperidin-1-yl)-2-oxoethyl)acetamide]
1.6 nM	3.3 nM	617 nM	–	–	–	–	–	Cc1cc(-c2[nH]c3ccc(C4CCN(Cc5cncs5)CC4)cc3c2C(C)C)cc(C)n1 [Example 444, 5-((4-(2-(2,6-dimethylpyridin-4-yl)-3-isopropyl-1H-indol-5-yl)piperidin-1-yl)methyl)thiazole]
8.4 nM	2.5 nM	485 nM	–	–	–	–	–	Cc1cc(-c2[nH]c3ccc(C4CCN(C(=O)CNC(C)C)CC4)cc3c2C(C)C)cc(C)n1 [Example 344, 1-(4-(2-(2,6-dimethylpyridin-4-yl)-3-isopropyl-1H-indol-5-yl)piperidin-1-yl)-2-(isopropylamino)ethan-1-one]
4.2 nM	1.1 nM	245 nM	–	–	–	–	–	Cc1cc(-c2[nH]c3ccc(C4CCN(CC(=O)N[C@H]5CC[C@H](O)CC5)CC4)cc3c2C(C)C)cc(C)n1 [Example 211, 2-(4-(2-(2,6-dimethylpyridin-4-yl)-3-isopropyl-1H-indol-5-yl)piperidin-1-yl)-N-((1r,4r)-4-hydroxycyclohexyl)acetamide]
–	1.1 nM	–	13.9 nM	849 nM	–	–	–	Cc1cc(-c2[nH]c3ccc(C4CCNCC4(F)F)cc3c2C(C)C)cc(C)n1 (single isomer, unassigned) [Example 489A, 5-(3,3-difluoropiperidin-4-yl)-2-(2,6-dimethylpyridin-4-yl)-3-isopropyl-1H-indole]
3.2 nM	2.5 nM	506 nM	–	–	–	–	–	Cc1cc(-c2[nH]c3ccc(C4CCN(CC5CC5)CC4)cc3c2C(C)C)cc(C)n1 [Example 474, 5-(1-(cyclopropylmethyl)piperidin-4-yl)-2-(2,6-dimethylpyridin-4-yl)-3-isopropyl-1H-indole]
31.7 nM	2.7 nM	26000 nM	–	–	–	–	–	Cc1cc(-c2[nH]c3ccc(C4CCN(C(=O)Cn5ncnn5)CC4)cc3c2C(C)C)cc(C)n1 [Example 155, 1-(4-(2-(2,6-dimethylpyridin-4-yl)-3-isopropyl-1H-indol-5-yl)piperidin-1-yl)-2-(2H-tetrazol-2-yl) ethan-1-one]
1.4 nM	0.8 nM	364 nM	–	–	–	–	–	Cc1cc(-c2[nH]c3ccc(C4CCN(CC5COC5)CC4)cc3c2C(C)C)cc(C)n1 [Example 333, 2-(2,6-dimethylpyridin-4-yl)-3-isopropyl-5-(1-(oxetan-3-ylmethyl)piperidin-4-yl)-1H-indole]
